The values below come from patent EP1148783B1, “CONVERTING COX INHIBITION COMPOUNDS THAT ARE NOT COX-2 SELECTIVE INHIBITORS TO DERIVATIVES THAT ARE COX-2 SELECTIVE INHIBITORS” (priority 1999, dated 2000).

In experiment [1] the target is T1, COX-2 (Homo sapiens, UniProt P35354).
T1 sequence (P35354 18-604): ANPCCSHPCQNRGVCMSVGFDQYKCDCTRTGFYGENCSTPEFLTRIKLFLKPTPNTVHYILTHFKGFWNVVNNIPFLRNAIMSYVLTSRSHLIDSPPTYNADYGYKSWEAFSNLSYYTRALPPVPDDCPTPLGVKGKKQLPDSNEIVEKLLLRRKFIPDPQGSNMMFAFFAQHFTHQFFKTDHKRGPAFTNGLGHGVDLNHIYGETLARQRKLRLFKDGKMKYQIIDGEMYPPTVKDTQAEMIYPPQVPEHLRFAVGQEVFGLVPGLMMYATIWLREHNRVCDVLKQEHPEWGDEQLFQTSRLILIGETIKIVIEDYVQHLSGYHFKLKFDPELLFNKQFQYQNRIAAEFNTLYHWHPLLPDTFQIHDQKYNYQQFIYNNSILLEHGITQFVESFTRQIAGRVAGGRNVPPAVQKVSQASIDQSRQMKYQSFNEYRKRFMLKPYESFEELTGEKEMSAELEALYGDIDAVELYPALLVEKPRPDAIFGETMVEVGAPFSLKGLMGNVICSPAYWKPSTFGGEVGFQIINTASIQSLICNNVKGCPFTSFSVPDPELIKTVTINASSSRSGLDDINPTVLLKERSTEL
Briefly: TLC assay of cyclooxygenase inhibition, purified human COX-2. Type of experiment: biochemical.

Experiment [2] has as its target T2, ovine COX-1 (Ovis aries, UniProt P05979).
T2 construct: COX-1 was purified from ram seminal vesicles obtained from Oxford Biomedical Research, Inc; tissue Oxford Biomedical Research, Inc. (Oxford, Michigan); host or cells: ram seminal vesicles
T2 sequence (P05979 25-600): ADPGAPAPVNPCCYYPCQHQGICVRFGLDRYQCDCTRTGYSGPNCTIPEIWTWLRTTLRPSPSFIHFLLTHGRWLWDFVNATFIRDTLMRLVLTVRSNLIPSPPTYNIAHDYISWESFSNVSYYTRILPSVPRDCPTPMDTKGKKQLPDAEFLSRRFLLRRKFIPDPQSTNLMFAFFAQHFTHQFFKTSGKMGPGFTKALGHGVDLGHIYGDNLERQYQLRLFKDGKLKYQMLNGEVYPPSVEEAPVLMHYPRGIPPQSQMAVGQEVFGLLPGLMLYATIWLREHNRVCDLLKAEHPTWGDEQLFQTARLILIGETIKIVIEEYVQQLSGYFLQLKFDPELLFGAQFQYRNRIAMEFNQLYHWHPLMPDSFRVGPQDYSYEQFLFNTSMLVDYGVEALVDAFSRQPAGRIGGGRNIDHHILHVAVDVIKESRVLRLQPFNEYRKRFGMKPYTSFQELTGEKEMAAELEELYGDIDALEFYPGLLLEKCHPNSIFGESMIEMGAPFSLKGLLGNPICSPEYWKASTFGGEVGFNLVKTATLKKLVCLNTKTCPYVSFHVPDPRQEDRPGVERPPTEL
Briefly: TLC assay of cyclooxygenase inhibition, purified ovine COX-1. The note with it: Table 2, amide derivatives; ovine COX-1 (44 nM), 20 min, 1-14C-AA at 37°C for 30 sec. The class given is biochemical.

Experiment [3] concerns rat foot pad edema. As to the kind of experiment: Rat foot pad edema model (carrageenan). The class given is in vivo, male Sprague-Dawley rats. The note with it: 2 mg/kg orally, corrected for 0.1 mL injection volume.
Protocol: Rats were injected with carrageenan, which triggers a rapid edema (swelling) within 3 hours that can be quantitatively measured by volume displacement.
In these experiments, the carrageenan that was injected was in 0.1 mL of aqueous saline so that 0.1 mL volume increase was due to the injection alone. […] More specifically, male Sprague-Dawley rats (150 g) received a subplantar injection of carrageenan (0.1 mL of a 1% suspension of carrageenan in sterile aqueous saline) into the right hind footpad while mildly anesthetized with methoxyflurane. […] The ipsilateral footpad volume (mL) was measured with a water displacement plethysmometer at time = 3 hours post-injection and compared to the time = 0 pre-injection paw volume for edema calculations.
In experiment [4] the target is T3, murine COX-2 mutant Tyr341Ala (Mus musculus, UniProt Q05769, Y341A).
T3 sequence (Q05769 18-604 Y341A): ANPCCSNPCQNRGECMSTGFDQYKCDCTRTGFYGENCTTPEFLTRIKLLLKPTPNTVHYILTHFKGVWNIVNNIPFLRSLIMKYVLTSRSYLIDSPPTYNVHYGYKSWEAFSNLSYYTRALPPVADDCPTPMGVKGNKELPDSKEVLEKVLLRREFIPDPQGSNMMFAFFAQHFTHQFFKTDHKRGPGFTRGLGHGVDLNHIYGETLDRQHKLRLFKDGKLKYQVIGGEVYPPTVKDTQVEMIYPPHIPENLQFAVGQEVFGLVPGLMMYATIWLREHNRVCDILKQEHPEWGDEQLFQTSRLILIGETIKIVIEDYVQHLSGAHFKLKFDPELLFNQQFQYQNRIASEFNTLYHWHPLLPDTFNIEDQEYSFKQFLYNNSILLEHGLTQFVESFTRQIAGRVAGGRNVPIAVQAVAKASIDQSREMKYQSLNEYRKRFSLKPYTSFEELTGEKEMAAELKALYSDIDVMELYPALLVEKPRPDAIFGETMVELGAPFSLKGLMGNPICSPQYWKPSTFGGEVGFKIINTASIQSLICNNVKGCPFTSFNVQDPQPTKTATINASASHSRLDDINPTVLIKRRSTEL

The target in experiment [5] is T4, Val509lleArg499HisVal420lle mutant (VRV mutant) (Mus musculus, UniProt Q05769, R499H/V420I/V509I).
T4 sequence (Q05769 18-604 V420I/R499H/V509I): T3 sequence (Q05769 18-604 Y341A) with A324Y, V403I, R482H, V492I

Experiment [6] deals with COX-1 (Homo sapiens, UniProt P23219). The note with it: background / literature statement; cited from earlier work.
Chain of COX-1 (P23219 24-599): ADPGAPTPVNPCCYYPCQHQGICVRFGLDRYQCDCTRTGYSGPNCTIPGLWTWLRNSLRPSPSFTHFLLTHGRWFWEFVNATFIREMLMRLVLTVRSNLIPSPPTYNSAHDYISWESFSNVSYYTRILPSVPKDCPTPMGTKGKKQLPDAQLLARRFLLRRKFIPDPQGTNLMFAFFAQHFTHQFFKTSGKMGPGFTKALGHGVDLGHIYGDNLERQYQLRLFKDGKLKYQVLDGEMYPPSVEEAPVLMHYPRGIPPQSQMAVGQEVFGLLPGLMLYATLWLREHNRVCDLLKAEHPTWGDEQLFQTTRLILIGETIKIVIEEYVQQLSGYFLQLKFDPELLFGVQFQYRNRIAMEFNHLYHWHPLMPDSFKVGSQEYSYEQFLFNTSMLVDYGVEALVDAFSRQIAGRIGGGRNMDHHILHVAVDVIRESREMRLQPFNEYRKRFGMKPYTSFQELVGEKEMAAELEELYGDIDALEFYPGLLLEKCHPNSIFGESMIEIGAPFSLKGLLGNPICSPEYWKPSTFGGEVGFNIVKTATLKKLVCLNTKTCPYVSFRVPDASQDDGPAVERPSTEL
Experiment [7] has as its target T1, COX-2. The note with it: background / literature statement; cited from earlier work.

Changes are numbered by the printed parent chain. Where two headings read alike, the source gives them in different places.

Usually IC50 stands for the concentration that inhibits the measured activity by half. A low value points to inhibition by little substance. In experiment [1], `CCn1nccc1NC(=O)Cc1c(C)n(C(=O)c2ccc(Cl)cc2)c2ccc(OC)cc12` [Compound 49, Indomethacin-N-5-((1-ethyl)pyrazolo) amide] came in with a half-inhibitory concentration (IC50) of 0.71 µM and a Selectivity of more than 94.

In the case of `COc1ccc2c(c1)c(CC(=O)Nc1cccnc1)c(C)n2C(=O)c1ccc(Cl)cc1` [Compound 47, Indomethacin-N-(3-pyridyl) amide], the IC50 in experiment [2] is more than 66 µM.

`COc1ccc2c(c1)c(CC(=O)O)c(C)n2C(=O)c1ccc(Cl)cc1` [Compound 1, Indomethacin]: in experiment [3], the reduction in inflammation entry is “comparable reduction in inflammation”.

For `COc1ccc2c(c1)c(CC(=O)NCCc1ccccc1)c(C)n2C(=O)c1ccc(Cl)cc1` [Compound 38, Indomethacin-N-(2-phenethyl) amide], the “inhibition of Tyr341Ala mutant” value in experiment [4] is reported as “resistant to inhibition”. In experiment [5], the “inhibition of triple mutant VRV” value was “resistant to inhibition”.

Regarding `COc1ccc2c(c1)c(CC(=O)OCCC1CCCCC1)c(C)n2C(=O)c1ccc(Cl)cc1` [Compound 10, Indomethacin cyclohexylethyl ester], the “IC value at which measurement of COX-2 inhibition was stopped” value in experiment [1] (tertiary amides) is 33.

For `COc1ccc2c(c1)c(CC(=O)Nc1ccc(F)cc1)c(C)n2C(=O)c1ccc(Cl)cc1` [Compound 39, Indomethacin-N-(4-fluorophenyl) amide], the 50% inhibitory concentration (IC50) in experiment [2] is more than 66 µM.

With `Cc1nc(-c2ccccc2)c(-c2ccc(S(N)(=O)=O)cc2)o1` [2-methyl-4-phenyl-5-sulfonamidophenyl oxazole, reference compound], the Selectivity in experiment [1] (Table 1, ester derivatives, Ratio of IC50 (COX-1):IC50 (COX-2)) is listed as more than 1100.

Regarding “Indomethacin 3-pyridyl ester [Compound 24]”, in experiment [1], the Selectivity turned out to be 50.

Turning to `CC1=C(CC(=O)O)c2cc(F)ccc2/C1=C\c1ccc(S(C)(=O)=O)cc1` [sulindac sulfone], the “inhibition of COX-1 (in words)” value in experiment [6] is “does not inhibit”. Also, the “inhibition of COX-2 (in words)” value in experiment [7] is “does not inhibit”.
